For one data set, the target named is T1, human GLP-1 receptor (Homo sapiens, UniProt P43220).
T1 construct: expressed in transfected cells; host or cells: BHK (parent line BHKTS13), clone BHK CRE luc2P hGLP-1R
Nature of the data set: In vitro functional potency, CRE luciferase reporter gene assay, whole BHK cells expressing hGLP-1R. Type of data set: cell-based. The conditions noted are these: BHK CRE luc2P hGLP-1R cells. How it is done: (§1) The in vitro functional potency is the measure of target receptor activation in a whole cell assay.
(§2) In vitro functional potency was determined by measuring the response of the target receptor in a reporter gene assay in individual cell lines. […] When the respective receptor is activated, it results in the production of cAMP, which in turn results in expression of the luciferase protein. When assay incubation is completed, luciferase substrate (luciferin) is added resulting in the enzymatic conversion of luciferin to oxyluciferin and producing bioluminescence. The luminescence is measured as the readout for the assay.
(§3) The cells lines used in these assays were BHK cells with BHKTS13 as a parent cell line. The cell lines were derived from a clone containing the CRE luciferase element and were established by further transfection with the respective human receptor to obtain the relevant cell line: BHK CRE luc2P hGLP-1R or BHK CRE luc2P hGIPR. The cells were cultured at 37° C. with 5% CO2 in Cell Culture Medium. They were aliquoted and stored in liquid nitrogen. The cells were kept in continuous culture and were seeded out the day before each assay.
(§4) GLP-1R Cell Culture Medium consisted of DMEM medium with 10% FBS, 500 μg/mL G418, and 300 μg/mL hygromycin. GIPR Cell Culture Medium consisted of DMEM medium with 10% FBS, 400 μg/mL G418, and 300 μg/mL hygromycin. Assay Buffer consisted of DMEM w/o phenol red, 10 mM Hepes, 1× Glutamax. 1% ovalbumin, and 0.1% Pluronic F-68 with the addition of HSA at twice the final assay concentration.
(§5) Procedure • 1) Cells were plated at 5000 cells/well and incubated overnight in the assay plate. • 2) Cells were washed once in DPBS. • 3) Stocks of the test compounds and reference compounds in concentrations ranging from […] were diluted 1:150 in Assay Buffer. Compounds were then diluted 1:10 in column 1 of a 96 deep well dilution plate and then carried across the row creating a 3.5 fold, 12 point dilution curve. • 4) Assay Buffer (50 μl aliquot) with or without HSA was added to each well in the assay plate. • 5) A 50 μl aliquot of compound or blank was transferred from the dilution plate to the assay plate containing the Assay Buffer with or without HSA. • 6) The assay plate was incubated for 3 h in a 5% CO2 incubator at 37° C. • 7) The cells were washed once with DPBS. • 8) A 100 μl aliquot of DPBS was added to each well of the assay plate. • 9) A 100 μl aliquot of steadylite plus reagent (light sensitive) was added to each well of the assay plate. • 10) Each assay plate was covered with aluminum foil to protect it from light and shaken at 250 RPM for 30 min at room temperature. • 11) Each assay plate was read in a microtiter plate reader.
(§6) The data from the microtiter plate reader was first regressed in an Excel in order to calculate the x-axis, log scale concentrations based on the individual test compound's stock concentration and the dilutions of the assay. […] The software performs a non-linear regression (log(agonist) vs response). A minimum of two replicates was measured for each sample. The reported values are averages of the replicates.

Data set [1] can be described thus: Pharmacokinetic study in dogs, oral dosing of tablet compositions with SNAC. In kind it is in vivo, Beagle dogs. As to conditions: for Tmax / half-life: male. In short, it runs like this:
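The tablets held 3-4 mg compound plus 100-300 mg SNAC and were given to fasted male beagles (6-8 per group); non-compartmental PK per animal.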

A further data set concerns the target T2, human GIP receptor (Homo sapiens, UniProt P48546).
T2 construct: expressed in transfected cells; host or cells: BHK (parent line BHKTS13), clone BHK CRE luc2P hGIPR
T2 sequence (P48546 22-466): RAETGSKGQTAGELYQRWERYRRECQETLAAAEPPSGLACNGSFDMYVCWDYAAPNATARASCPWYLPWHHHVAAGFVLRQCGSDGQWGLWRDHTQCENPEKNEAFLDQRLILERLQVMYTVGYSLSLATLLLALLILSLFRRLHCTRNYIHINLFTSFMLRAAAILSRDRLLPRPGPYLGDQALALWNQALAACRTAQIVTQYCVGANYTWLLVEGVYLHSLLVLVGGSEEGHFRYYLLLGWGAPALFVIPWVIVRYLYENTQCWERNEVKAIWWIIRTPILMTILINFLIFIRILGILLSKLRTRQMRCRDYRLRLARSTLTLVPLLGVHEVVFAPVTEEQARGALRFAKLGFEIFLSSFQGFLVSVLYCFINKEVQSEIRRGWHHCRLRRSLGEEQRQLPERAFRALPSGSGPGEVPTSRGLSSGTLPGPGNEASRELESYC
Nature of the data set: In vitro functional potency, CRE luciferase reporter gene assay, whole BHK cells expressing hGIPR. In kind it is cell-based. As to conditions: BHK CRE luc2P hGIPR cells. How it is done: as §1, §2, §3, §4, §5, §6
In general terms: In a reporter assay the amount or activity of a reporter protein is the signal.

The conditions of data set [2]: in vivo; cited from earlier work.
[3] abbreviates: 0% HSA, read-out: hGLP-1R, CRE Luc 0% HSA EC50.
Setting [4] is: hGLP-1R, CRE Luc 1% HSA EC50, 1% HSA.
Where [5] appears, read: 0% HSA, read-out: hGIPR, CRE Luc 0% HSA EC50.
Where [6] appears, read: hGIPR, CRE Luc 1% HSA EC50, 1% HSA.

Read-outs that look alike come from different tables or passages of the source. Starred links: 1 amine or outer side, 2 acyl side, 3 side chain; linkers in the order of their positions; H or OH if unused. Non-standard residues stand in square brackets, D forms with d. Residues, ends and D or L forms follow the SMILES beside them. Groups on a side chain read outwards from the residue. *: point of attachment. C18 diacid = O=C(O)CCCCCCCCCCCCCCCCC(=O)*; γGlu = O=C(O)[C@H](CCC(=O)[*:2])N[*:1]; εLys = N[C@@H](CCCCN[*:1])C(=O)[*:2]; AEEA = NCCOCCOCC(=O)O; Aib = CC(C)(N)C(=O)O

What is called EC50 is the concentration needed to bring the measured effect to its halfway point. What is called Tmax is the time at which the peak concentration occurs.

T1 sequence (P43220 24-463): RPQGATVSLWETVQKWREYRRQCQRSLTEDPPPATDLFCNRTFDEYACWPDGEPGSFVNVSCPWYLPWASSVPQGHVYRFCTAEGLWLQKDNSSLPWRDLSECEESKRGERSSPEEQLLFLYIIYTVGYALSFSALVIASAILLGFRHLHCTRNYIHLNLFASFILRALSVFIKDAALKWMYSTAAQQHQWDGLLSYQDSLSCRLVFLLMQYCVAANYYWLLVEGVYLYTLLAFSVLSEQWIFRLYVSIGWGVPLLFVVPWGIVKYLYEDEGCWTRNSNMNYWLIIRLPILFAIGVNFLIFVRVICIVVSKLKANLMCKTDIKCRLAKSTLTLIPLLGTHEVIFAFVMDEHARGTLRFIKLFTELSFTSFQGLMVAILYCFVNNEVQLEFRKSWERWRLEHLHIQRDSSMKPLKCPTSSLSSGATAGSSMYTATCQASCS

As for `CC[C@H](C)[C@H](NC(=O)[C@H](Cc1ccccc1)NC(=O)[C@H](CCC(=O)O)NC(=O)[C@H](CCCNC(=N)N)NC(=O)[C@H](C)NC(=O)[C@H](C)NC(=O)[C@H](CCC(N)=O)NC(=O)[C@H](CCCCNC(=O)COCCOCCNC(=O)COCCOCCNC(=O)CC[C@H](NC(=O)CCCCCCCCCCCCCCCCC(=O)O)C(=O)O)NC(=O)[C@H](CCC(=O)O)NC(=O)[C@H](CC(C)C)NC(=O)[C@H](Cc1ccc(O)cc1)NC(=O)[C@@H](NC(=O)[C@H](CO)NC(=O)[C@H](Cc1ccc(O)cc1)NC(=O)[C@H](CC(=O)O)NC(=O)[C@H](CO)NC(=O)[C@@H](NC(=O)[C@H](Cc1ccccc1)NC(=O)[C@@H](NC(=O)CNC(=O)[C@H](CCC(=O)O)NC(=O)C(C)(C)NC(=O)[C@@H](N)Cc1ccc(O)cc1)[C@@H](C)O)[C@@H](C)O)[C@@H](C)CC)C(=O)N[C@@H](CCC(=O)O)C(=O)N[C@@H](Cc1c[nH]c2ccccc12)C(=O)N[C@@H](CC(C)C)C(=O)N[C@@H](CC(C)C)C(=O)N[C@@H](C)C(=O)NCC(=O)NCC(=O)N1CCC[C@H]1C(=O)N[C@@H](CO)C(=O)N[C@@H](CO)C(=O)NCC(=O)N[C@@H](C)C(=O)N1CCC[C@H]1C(=O)N1CCC[C@H]1C(=O)N1CCC[C@H]1C(=O)N[C@@H](CO)C(=O)O` [Compound No. 10] (H-Y[Aib]EGTFTSDYSIYLEK([AEEA-AEEA-γGlu-C18 diacid])QAAREFIEWLLAGGPSSGAPPPS-OH), the EC50 at human GLP-1 receptor (setting [3]) was 0.0039 nM; on human GLP-1 receptor (setting [4]), 0.94 nM; at human GIP receptor (setting [5]), 0.0113 nM; at human GIP receptor (setting [6]), 1.75 nM. The compound further gave an AUC/Dose in data set [1] (dog, in vivo, po) of 8.4 kg·h/L. The Tmax in data set [1] (beagle, dog, in vivo, po, Tmax) was 1 h. This compound also gave a half-life in data set [1] (beagle, dog, in vivo, po, t1/2) of 36 h.
Consider `CC[C@H](C)[C@H](NC(=O)[C@H](Cc1ccccc1)NC(=O)[C@H](CCC(=O)O)NC(=O)[C@H](CCCNC(=N)N)NC(=O)[C@H](C)NC(=O)[C@H](C)NC(=O)[C@H](CCC(N)=O)NC(=O)[C@H](CCCCNC(=O)[C@@H](N)CCCCNC(=O)[C@@H](N)CCCCNC(=O)CC[C@H](NC(=O)CCCCCCCCCCCCCCCCC(=O)O)C(=O)O)NC(=O)[C@H](CCC(=O)O)NC(=O)[C@H](CC(C)C)NC(=O)[C@H](Cc1ccc(O)cc1)NC(=O)[C@@H](NC(=O)[C@H](CO)NC(=O)[C@H](Cc1ccc(O)cc1)NC(=O)[C@H](CC(=O)O)NC(=O)[C@H](CO)NC(=O)[C@@H](NC(=O)[C@H](Cc1ccccc1)NC(=O)[C@@H](NC(=O)CNC(=O)[C@H](CCC(=O)O)NC(=O)C(C)(C)NC(=O)[C@@H](N)Cc1ccc(O)cc1)[C@@H](C)O)[C@@H](C)O)[C@@H](C)CC)C(=O)N[C@@H](CC(N)=O)C(=O)N[C@@H](Cc1c[nH]c2ccccc12)C(=O)N[C@@H](CC(C)C)C(=O)N[C@@H](CC(C)C)C(=O)N[C@@H](C)C(=O)NCC(=O)NCC(=O)N1CCC[C@H]1C(=O)N[C@@H](CO)C(=O)N[C@@H](CO)C(=O)NCC(=O)N[C@@H](C)C(=O)N1CCC[C@H]1C(=O)N1CCC[C@H]1C(=O)N1CCC[C@H]1C(=O)N[C@@H](CO)C(=O)O` [Compound No. 11] (H-Y[Aib]EGTFTSDYSIYLEK([εLys-εLys-γGlu-C18 diacid])QAAREFINWLLAGGPSSGAPPPS-OH; N-terminus assumed), for which the EC50 on human GLP-1 receptor (setting [3]) came out at 0.0033 nM; at human GLP-1 receptor (setting [4]) it was 0.132 nM; at human GIP receptor (setting [5]), 0.0099 nM; at human GIP receptor (setting [6]), 0.45 nM. For the same compound, the AUC/Dose in data set [1] (dog, in vivo, po) was found to be 7.1 kg·h/L. In addition, the Tmax in data set [1] (beagle, dog, in vivo, po, Tmax) is 1.4 h. In data set [1] (beagle, dog, in vivo, po, t1/2), this compound gave a half-life of 34 h.
For `CC[C@H](C)[C@H](NC(=O)[C@H](Cc1ccccc1)NC(=O)[C@H](CCC(=O)O)NC(=O)[C@H](CCCNC(=N)N)NC(=O)[C@H](C)NC(=O)[C@H](C)NC(=O)[C@H](CCC(N)=O)NC(=O)[C@H](CCCCNC(=O)[C@@H](N)CCCCNC(=O)[C@@H](N)CCCCNC(=O)CC[C@H](NC(=O)CCCCCCCCCCCCCCCCC(=O)O)C(=O)O)NC(=O)[C@H](CCC(=O)O)NC(=O)[C@H](CC(C)C)NC(=O)[C@H](Cc1ccc(O)cc1)NC(=O)[C@@H](NC(=O)[C@H](CO)NC(=O)[C@H](Cc1ccc(O)cc1)NC(=O)[C@H](CC(=O)O)NC(=O)[C@H](CO)NC(=O)[C@@H](NC(=O)[C@H](Cc1ccccc1)NC(=O)[C@@H](NC(=O)CNC(=O)[C@H](CCC(=O)O)NC(=O)C(C)(C)NC(=O)[C@@H](N)Cc1ccc(O)cc1)[C@@H](C)O)[C@@H](C)O)[C@@H](C)CC)C(=O)N[C@@H](CCC(=O)O)C(=O)N[C@@H](Cc1c[nH]c2ccccc12)C(=O)N[C@@H](CC(C)C)C(=O)N[C@@H](CC(C)C)C(=O)N[C@@H](CCCNC(=N)N)C(=O)NCC(=O)NCC(=O)N1CCC[C@H]1C(=O)N[C@@H](CCC(=O)O)C(=O)N[C@@H](CO)C(=O)NCC(=O)N[C@@H](C)C(=O)N1CCC[C@H]1C(=O)N1CCC[C@H]1C(=O)N1CCC[C@H]1C(=O)N[C@@H](CO)C(=O)O` [Compound No. 13] (H-Y[Aib]EGTFTSDYSIYLEK([εLys-εLys-γGlu-C18 diacid])QAAREFIEWLLRGGPESGAPPPS-OH), the EC50 at human GLP-1 receptor (hGLP-1R, CRE Luc 0% HSA EC50, 0% HSA) came to 0.0074 nM; on human GLP-1 receptor (setting [4]), 0.204 nM; on human GIP receptor (hGIPR, CRE Luc 0% HSA EC50, 0% HSA), 0.0139 nM; at human GIP receptor (setting [6]), 0.257 nM. The half-life in data set [1] (dog, in vivo, oral tablet, SNAC 100 mg, test substance 3 mg, Beagle dogs, harmonic mean, read-out: t1/2 (converted)) is 60 h. In data set [1] (dog, in vivo, oral tablet, SNAC 100 mg, test substance 3 mg, Beagle dogs, median, read-out: Tmax), the Tmax is 1.5 h. The AUC/Dose in data set [1] (oral tablet, SNAC 100 mg, test substance 3 mg, Beagle dogs, arithmetic mean) worked out at 14.8 kg·h/L.
Take “hGLP-1: human glucagon-like peptide 1, native hormone whose half-life in man is cited from Meier et al.”: the “half-life measured in man” value in data set [2] was 2 to 4 min.
